This is an account of results in BindingDB's records for doi:10.1002/cbic.201600612 (University of Glasgow, 2017).

SMILES strings stand for the structures.

The target of experiment [1] is T1, Coagulation factor XII (Homo sapiens, UniProt P00748).
T1 sequence (P00748 whole entry): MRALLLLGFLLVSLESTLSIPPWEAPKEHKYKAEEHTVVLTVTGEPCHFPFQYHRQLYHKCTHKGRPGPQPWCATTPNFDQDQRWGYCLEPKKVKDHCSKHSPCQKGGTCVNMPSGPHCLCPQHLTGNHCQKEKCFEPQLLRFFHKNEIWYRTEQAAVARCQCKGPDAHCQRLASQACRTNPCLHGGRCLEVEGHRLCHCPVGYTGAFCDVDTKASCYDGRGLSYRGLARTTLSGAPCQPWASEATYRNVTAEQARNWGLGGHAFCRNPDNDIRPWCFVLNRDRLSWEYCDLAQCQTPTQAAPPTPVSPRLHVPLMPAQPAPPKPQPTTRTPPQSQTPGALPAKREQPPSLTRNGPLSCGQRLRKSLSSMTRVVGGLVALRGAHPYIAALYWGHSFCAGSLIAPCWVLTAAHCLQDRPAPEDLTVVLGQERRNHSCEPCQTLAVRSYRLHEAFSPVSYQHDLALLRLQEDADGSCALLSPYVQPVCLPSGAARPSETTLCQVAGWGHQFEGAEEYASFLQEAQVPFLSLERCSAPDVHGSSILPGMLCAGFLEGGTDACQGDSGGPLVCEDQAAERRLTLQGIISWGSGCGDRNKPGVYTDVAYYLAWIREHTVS
As to the kind of experiment: Protease Inhibition Assay. The following applies: pH 7.4. On the procedure: (§1) The inhibition of plasma kallikrein and coagulation factor FXII was assessed by incubating the proteases with bicyclic peptide (twofold dilutions) and measuring the residual protease activity with fluorogenic substrates. The inhibition assays were performed in buffer ([…]) containing Tris HCl (pH 7.4, 10 mm), NaCl (150 mm), MgCl2 (10 mm), CaCl2 (1 mm), bovine serum albumin (BSA, 0.1 %, w/v), Triton-X100 (0.01%, v/v), and DMSO (5 %, v/v). Final concentrations of human plasma kallikrein (Innovative Research) and human FXII (Innovative Research)were 0.25 nm and 10 nm, respectively. The fluorogenic substrates Z-Phe-Arg-AMC (plasma kallikrein) and Z-Gly-Gly-Arg-AMC (FXII) were used at a final concentration of […]. Fluorescence intensity was measured with a Tecan Infinite M 200 Pro plate reader (λex= 368 nm, λem=468 nm).

Experiment [2] has as its target Plasma kallikrein (Human, UniProt P03952). In words: Protease Inhibition Assay. To be noted: pH 7.4. As for the experimental part:
as §1

Sequence of Plasma kallikrein (P03952 20-390 S143N limits assumed): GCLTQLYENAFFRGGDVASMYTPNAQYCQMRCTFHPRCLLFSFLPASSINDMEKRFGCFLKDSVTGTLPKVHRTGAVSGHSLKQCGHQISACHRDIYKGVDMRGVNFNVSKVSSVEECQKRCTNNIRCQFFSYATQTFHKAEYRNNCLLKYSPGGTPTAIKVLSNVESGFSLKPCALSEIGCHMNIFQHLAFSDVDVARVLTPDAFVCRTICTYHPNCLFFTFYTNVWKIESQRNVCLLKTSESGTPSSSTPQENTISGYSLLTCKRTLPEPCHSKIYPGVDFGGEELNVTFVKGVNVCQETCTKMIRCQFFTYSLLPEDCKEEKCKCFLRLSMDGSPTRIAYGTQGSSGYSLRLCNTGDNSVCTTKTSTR
Sequence of Plasma kallikrein (P03952 391-638 limits assumed): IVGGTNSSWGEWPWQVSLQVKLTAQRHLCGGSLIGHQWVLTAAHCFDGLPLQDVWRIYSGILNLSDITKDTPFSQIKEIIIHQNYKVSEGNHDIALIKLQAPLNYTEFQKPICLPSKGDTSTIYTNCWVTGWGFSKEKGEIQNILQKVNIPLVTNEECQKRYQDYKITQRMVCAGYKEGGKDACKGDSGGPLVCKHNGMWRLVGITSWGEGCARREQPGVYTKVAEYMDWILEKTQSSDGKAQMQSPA

As usually defined, the Ki is the dissociation constant of the complex between target and ligand, obtained from inhibition or displacement. Compound `CSCCC(=O)N1CN(C(=O)CCSC)CN(C(=O)CCSC)C1` [TATA-FXII618 (14)] returned a Ki in experiment [1] of 25 nM.
Consider `CSCc1nc(CSC)nc(CSC)n1` [TBMT-FX618 (16)], for which the inhibitory constant (Ki) in experiment [1] was 1220 nM; in experiment [2], 20 nM.
Taken in the same sequence, the figures for `CSCC(=O)N1CN(C(=O)CSC)CN(C(=O)CSC)C1` [TATB-FXII618 (15)] were 340 nM and 540 nM.
In experiment [2], `CSCc1cc(CSC)cc(CSC)c1` [TBMB-PK15 (10)] yielded a Ki of 1.3 nM.
